Values after ≈ are worked out from the molar mass of the structure shown.
Columns and labels:
Leishmania donovani [1] = assay: Antileishmanial activity against Leishmania donovani MHOM/ET/67/HU3 after 5 days by Giemsa staining based microscopic analysis; type: functional, organism-based; conditions: MHOM/ET/67/HU3, 120 h
Plasmodium falciparum [2] = assay: Antiplasmodial activity against chloroquine-resistant Plasmodium falciparum FcB1/Colombia after 24 hrs by [3H]hypoxanthine incorporation assay; type: functional, organism-based
[3] = system: Trypanosoma brucei brucei; assay: Antitrypanosomal activity against Trypanosoma brucei brucei; type: functional, organism-based
L6 = assay: Cytotoxicity against rat L6 cells after 72 hrs by alamar blue staining based fluorescence analysis; type: functional, cell-based; conditions: L6, 72 h
Trypanosoma cruzi [4] = assay: Antitrypanosomal activity against trypomastigote forms of Trypanosoma cruzi Tulahuen C2C4 infected in rat L6 cells assessed as inhibition of growth after 96 hrs by inverted microscopy; type: functional, organism-based; conditions: Tulahuen C2C4, L6, 96 h
Leishmania donovani [5] = assay: Antileishmanial activity against Leishmania donovani MHOM/ET/67/L82 after 72 hrs by resazurin dye based fluorescence analysis; type: functional, organism-based; conditions: MHOM/ET/67/L82, 72 h
[6] = system: Trypanosoma brucei rhodesiense; assay: Antitrypanosomal activity against Trypanosoma brucei rhodesiense STIB 900 after 72 hrs by alamar blue staining based fluorescence analysis; type: functional, organism-based; conditions: STIB 900, 72 h
Plasmodium falciparum [7] = assay: Antimalarial activity against chloroquine and pyrimethamine-resistant Plasmodium falciparum K1 infected in human red blood cells after 48 hrs by [3H]hypoxanthine incorporation assay; type: functional, organism-based
[8] = Cytotoxicity against human U937 cells after 72 hrs by MTT assay; type: functional; conditions: U-937, 72 h, read-out: LD50 (the source's name)
Plasmodium falciparum [9] = assay: Antimalarial activity against chloroquine-sensitive Plasmodium falciparum 3D7 after 48 hrs by ethidium bromide staining based fluorometric method; type: functional, organism-based; conditions: 3D7, 48 h
Leishmania donovani [10] = assay: Antileishmanial activity against Leishmania donovani MHOM/ET/67/L82 after 72 hrs by Alamar blue dye based fluorescence analysis; type: functional, organism-based; conditions: MHOM/ET/67/L82, 72 h
Trypanosoma cruzi [11] = assay: Antitrypanosomal activity against trypomastigote forms of Trypanosoma cruzi Tulahuen C2C4 infected in rat L6 cells after 96 hrs by photometric method; type: functional, organism-based; conditions: Tulahuen C2C4, L6, 96 h
Trypanosoma brucei = assay: Antitrypanosomal activity against Trypanosoma brucei; type: functional, organism-based
Plasmodium falciparum [12] = assay: Antimalarial activity against chloroquine-sensitive Plasmodium falciparum 3D7 after 24 hrs by [3H]hypoxanthine labeling method; type: functional, organism-based
[13] = Cytotoxicity against mouse J774.1 cells; type: cell-based
Plasma = assay: Plasma concentration in human at […], administered orally by HPLC method in presence of 20 mg piperine; type: ADME, cell-free; conditions: po
Leishmania major [14] = assay: Antileishmanial activity against Leishmania major promastigotes; type: functional; conditions: read-out: LD50 (the source's name)
[15] = Cytotoxicity against HEK293T cells; type: cell-based; conditions: Homo sapiens, HEK-293T
Arginase-1 = molecular target: T1, Arginase-1 (Rattus norvegicus, UniProt P07824); assay: Inhibition of recombinant rat liver arginase expressed without histidine tail assessed as urea formation using L-arginine as substrate after 15 mins by Berthelot assay
T1 sequence (P07824 whole entry): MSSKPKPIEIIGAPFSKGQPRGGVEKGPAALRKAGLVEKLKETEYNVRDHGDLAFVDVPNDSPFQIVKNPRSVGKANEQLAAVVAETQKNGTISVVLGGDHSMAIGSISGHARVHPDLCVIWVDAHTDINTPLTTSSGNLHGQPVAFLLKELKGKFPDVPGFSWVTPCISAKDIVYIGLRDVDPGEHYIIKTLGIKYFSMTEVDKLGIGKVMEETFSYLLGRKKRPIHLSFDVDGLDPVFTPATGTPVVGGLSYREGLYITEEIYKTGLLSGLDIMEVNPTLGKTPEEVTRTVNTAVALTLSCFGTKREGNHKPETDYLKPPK

Leishmania amazonensis [16] = assay: Antileishmanial activity against amastigote Leishmania amazonensis relative to control; type: functional
Leishmania amazonensis [17] = assay: Antileishmanial activity against amastigote Leishmania amazonensis; type: functional, organism-based
Leishmania donovani [18] = assay: Antileishmanial activity against […] Leishmania donovani MHOM/KE/85/NLB439 in human peripheral blood monocyte derived macrophages assessed as growth inhibition after 24 hrs by [3H]-thymidine incorporation assay; type: functional, organism-based
Leishmania major [19] = assay: Antileishmanial activity against promastigote Leishmania major MHOM/IL/67/LRC-L137 assessed as growth inhibition after 2 hrs by [3H]-thymidine incorporation assay; type: functional, organism-based
[20] = Cmax in Wistar rat at 50 mg/kg after 2 hrs by UPLC method; type: ADME, organism-based; set-up: dose 50 mg/kg; conditions: in vivo
Leishmania infantum = assay: Antileishmanial activity against Leishmania infantum MCAN/IR/07/Moheb-gh assessed as cell viability after 72 hrs by MTT assay; type: functional, organism-based
Leishmania tropica = assay: Antileishmanial activity against Leishmania tropica MHOM/IR/2002/Mash2 assessed as cell viability after 72 hrs by MTT assay; type: functional, organism-based; conditions: MHOM/IR/2002/Mash2, 72 h
[21] = Cmax in Wistar rat at 50 mg/kg administered as lipid nanoparticle suspension after 2 hrs by UPLC method; type: ADME, organism-based; set-up: dose 50 mg/kg; conditions: in vivo

Q: Which IC50 (Leishmania donovani [1]) does the source give for `COc1ccc(CC[C@@H](C[C@H](CCc2ccc(O)c(O)c2)O[C@@H]2O[C@H](CO)[C@@H](O)[C@H](O)[C@H]2O)OC=O)cc1` here?
A: 30 µM

Q: What about the IC50 (Plasmodium falciparum [2]) of the same compound?
A: > 20 µM

Q: And the IC50 [3]?
A: 25 µM

Q: Which IC50 (Leishmania donovani [1]) does the source give for `COc1ccc(CC[C@H](O)C[C@H](CCc2ccc(O)c(O)c2)O[C@@H]2O[C@H](CO)[C@@H](O)[C@H](O)[C@H]2O)cc1` here?
A: 30 µM

Q: And the IC50 (Plasmodium falciparum [2])?
A: > 20 µM

Q: What about the IC50 [3] of the same compound?
A: > 100 µM

Q: Which IC50 (L6) does the source give for `C/C=C(\C)CO[C@@H]1CC([C@@H](O)[C@]2(C)C=C3OC(=O)C4=C3[C@H]2[C@H]2OC(=O)[C@H](C)[C@@H]2[C@H](OC/C(C)=C/C)C4)=C2C(=O)C=C(C)[C@@H]2[C@H]2OC(=O)[C@H](C)[C@@H]21` here?
A: 16.2 µM

Q: What about the IC50 (Trypanosoma cruzi [4]) of the same compound?
A: 30.3 µM

Q: What about the IC50 (Leishmania donovani [5]) of the same compound?
A: 10.2 µM

Q: And the IC50 [6]?
A: 6.2 µM

Q: And the IC50 (Plasmodium falciparum [7])?
A: 2 µM

Q: Which IC50 (Leishmania donovani [1]) does the source give for `OC[C@H]1O[C@@H](O[C@@H](CCc2ccc(O)c(O)c2)C[C@@H](O)CCc2ccc(O)c(O)c2)[C@H](O)[C@@H](O)[C@@H]1O` here?
A: 30 µM

Q: What about the IC50 (Plasmodium falciparum [2]) of the same compound?
A: > 20 µM

Q: And the IC50 [3]?
A: 25 µM

Q: Which results are given for `O=CO[C@@H](CCc1ccc(O)c(O)c1)C[C@H](CCc1ccc(O)c(O)c1)O[C@@H]1O[C@H](CO)[C@@H](O)[C@H](O)[C@H]1O`?
A: IC50 (Leishmania donovani [1]): 30 µM; IC50 (Plasmodium falciparum [2]): > 20 µM; IC50 [3]: 25 µM

Q: Which CC50 [8] does the source give for `CC(C)=CCc1c(O)c(O)c(O)c2c(=O)c3c(CC=C(C)C)c(O)c(O)cc3oc12` here?
A: 263 µM

Q: What about the IC50 (Plasmodium falciparum [9]) of the same compound?
A: 12.4 µM

Q: With `O=c1cc(-c2ccc(O)cc2)oc2cc(O)cc(O)c12` [APIGENIN] as the compound, how does the IC50 (L6) read?
A: 18.1 µg/mL

Q: What about the IC50 [6] of the same compound?
A: 5.1 µg/mL

Q: And the IC50 (Leishmania donovani [10])?
A: 1.9 µg/mL (≈ 7.03 µM)

Q: What about the IC50 (Trypanosoma cruzi [11]) of the same compound?
A: 21.8 µg/mL (≈ 80.7 µM)

Q: For `COc1cc(/C=C/C(=O)CC(=O)/C=C/c2ccc(O)c(OC)c2)ccc1O` [CURCUMIN], which IC50 (Trypanosoma brucei) is on record?
A: 3.6 µM

Q: What about the IC50 (Plasmodium falciparum [12]) of the same compound?
A: 25 µM

Q: And the LC50 ([3]; read-out: LD50 (the source's name))?
A: 46.5 µM

Q: And the IC50 [13]?
A: 31 µM

Q: And the Cp (Plasma)?
A: 180 ng/mL

Q: What about the LC50 (Leishmania major [14]) of the same compound?
A: 37.6 µM

Q: What about the IC50 [15] of the same compound?
A: 15.2 µM

Q: With `O=c1c(O)c(-c2ccc(O)c(O)c2)oc2cc(O)ccc12` [FISETIN] as the compound, how does the IC50 (Arginase-1) read?
A: 1.4 µM

Q: What about the IC50 (L6) of the same compound?
A: 38.5 µg/mL

Q: What about the IC50 [6] of the same compound?
A: 3.3 µg/mL

Q: What about the IC50 (Leishmania donovani [10]) of the same compound?
A: 0.6 µg/mL (≈ 2.1 µM)

Q: And the IC50 (Trypanosoma cruzi [11])?
A: > 30 µg/mL

Q: Which results are given for `O=c1c(O[C@@H]2O[C@H](CO)[C@@H](O)[C@H](O)[C@H]2O)c(-c2ccc(O)c(O)c2)oc2cc(O)cc(O)c12` [ISOQUERCETIN]?
A: Activity (Leishmania amazonensis [16]): 40%; IC50 (Leishmania amazonensis [17]): 0.78 µg/mL (≈ 1.68 µM)

Q: Which results are given for `C=CC(C)(C)c1cc(/C=C/C(=O)c2ccc(O)cc2)c(OC)cc1O` [LICOAGROCHACONE A]?
A: IC50 (Leishmania donovani [18]): 0.9 µM; IC50 (Leishmania major [19]): 7.2 µM

Q: With `O=c1cc(-c2ccc(O)c(O)c2)oc2cc(O)cc(O)c12` [LUTEOLIN] as the compound, how does the IC50 (Arginase-1) read?
A: 9 µM

Q: What about the IC50 (L6) of the same compound?
A: 9.4 µg/mL

Q: What about the IC50 [6] of the same compound?
A: 3.7 µg/mL

Q: What about the IC50 (Leishmania donovani [10]) of the same compound?
A: 0.8 µg/mL (≈ 2.79 µM)

Q: And the IC50 (Trypanosoma cruzi [11])?
A: 21.4 µg/mL (≈ 74.8 µM)

Q: For `O=c1c(O)c(-c2ccc(O)c(O)c2)oc2cc(O)cc(O)c12` [QUERCETIN], which IC50 [6] is on record?
A: 8.3 µg/mL

Q: And the IC50 (Leishmania donovani [10])?
A: 1 µg/mL (≈ 3.31 µM)

Q: What about the IC50 (Trypanosoma cruzi [11]) of the same compound?
A: > 30 µg/mL

Q: With `C[C@@H]1O[C@@H](Oc2c(-c3ccc(O)c(O)c3)oc3cc(O)cc(O)c3c2=O)[C@H](O)[C@H](O)[C@H]1O` [QUERCITRIN] as the compound, how does the IC50 (L6) read?
A: > 90 µg/mL

Q: And the IC50 [6]?
A: 27.9 µg/mL

Q: And the IC50 (Leishmania donovani [10])?
A: 17.7 µg/mL (≈ 39.5 µM)

Q: What about the IC50 (Trypanosoma cruzi [11]) of the same compound?
A: > 30 µg/mL

Q: For `CC1=CC(=O)C(C(C)C)=CC1=O` [THYMOQUINONE], which Cmax [20] is on record?
A: 400 ng/mL

Q: What about the IC50 (Leishmania infantum) of the same compound?
A: 1.47 µg/mL (≈ 8.95 µM)

Q: And the IC50 (Leishmania tropica)?
A: 1.16 µg/mL (≈ 7.06 µM)

Q: And the Cmax [21]?
A: 900 ng/mL
